Assay results from ChEMBL document CHEMBL5214921, “Bacterial type I signal peptidase inhibitors - Optimized hits from nature” (Eur J Med Chem, 2022).
Converted amounts (≈) assume the structure as drawn. Values belong to the molecule of their own block, whether it stands above or below them. *1 amine or outer side, *2 acyl side, *3 side chain or, on linkers, in order; H or OH if unused. Where a SMILES comes first, the peptide text is derived from it. [ ]: non-standard residue; d: D form. The star is where a group is joined. X1 = C[C@H](N[*:1])C(=O)C(=O)[*:2]; NMeT = CN[C@H](C(=O)O)[C@@H](C)O; Decanoyl = CCCCCCCCCC(=O)*; βAla = NCCC(=O)O

Legend:
Staphylococcus aureus [1] = test: Antibacterial activity against methicillin-resistant Staphylococcus aureus assessed as bacterial growth inhibition; format: functional
Staphylococcus aureus [2] = test: Antibacterial activity against methicillin-resistant Staphylococcus aureus assessed as bacterial growth inhibition measured after 24 hrs; format: functional
Pseudomonas aeruginosa [3] = test: Antibacterial activity against wild type Pseudomonas aeruginosa PA14 assessed as inhibition of bacterial growth […] by CLSI based protocol; format: functional
Pseudomonas aeruginosa [4] = test: Antibacterial activity against wild type Pseudomonas aeruginosa PA14 assessed as inhibition of bacterial growth; format: functional
Escherichia coli [5] = test: Antibacterial activity against Escherichia coli MG1655 assessed as bacterial cell growth inhibition measured after 18 hrs by CLSI based broth microdilution method; format: functional
Escherichia coli [6] = test: Antibacterial activity against Escherichia coli assessed as bacterial cell growth inhibition; format: functional
[7] = system: Staphylococcus epidermidis; test: Antibacterial activity against Staphylococcus epidermidis ATCC 35984 assessed as bacterial cell growth inhibition measured after 18 hrs by CLSI based broth microdilution method; format: functional
Staphylococcus aureus [8] = test: Antibacterial activity against Staphylococcus aureus 8325 assessed as bacterial cell growth inhibition measured after 18 hrs by CLSI based broth microdilution method; format: functional
[9] = system: Staphylococcus epidermidis; test: Antibacterial activity against Staphylococcus epidermidis assessed as bacterial cell growth inhibition; format: functional
Staphylococcus aureus [10] = test: Antibacterial activity against Staphylococcus aureus assessed as bacterial cell growth inhibition; format: functional
[11] = Inhibition of Staphylococcus aureus SpsB incubated for 15 mins by fluorescence based analysis
Escherichia coli [12] = test: Antibacterial activity against Escherichia coli ATCC 25922 assessed as bacterial cell growth inhibition; format: functional
[13] = Inhibition of Escherichia coli Signal peptidase I using decanoyl-k(DABCYL)-TPTAKAASKKD-D(EDANS)-NH2 as substrate by fluorescence-based analysis
[14] = Inhibition of Streptococcus pneumoniae Signal peptidase I using decanoyl-k(DABCYL)-TPTAKAASKKD-D(EDANS)-NH2 as substrate by fluorescence-based analysis
Staphylococcus aureus [15] = test: Antibacterial activity against Staphylococcus aureus NCTC 8325 assessed as bacterial cell growth inhibition by CLSI based broth microdilution method; format: functional
[16] = system: Staphylococcus epidermidis; test: Antibacterial activity against Staphylococcus epidermidis assessed as bacterial cell growth inhibition by CLSI based broth microdilution method; format: functional
[17] = Inhibition of LepB (unknown origin); set-up: species or system Bacteria

Structure (SMILES): O=C(Nc1ccc2c(c1)OC(F)(F)O2)Nc1ccc(Cl)c(C(F)(F)F)c1
MIC (Staphylococcus aureus [1]): 0.12 µg/mL (≈ 0.304 µM)
MIC (Staphylococcus aureus [2]): 0.3 µM (≈ 0.118 µg/mL)

MIC (Pseudomonas aeruginosa [3]): 2 µM (≈ 1.81 µg/mL)
MIC (Pseudomonas aeruginosa [4]): 1.81 µg/mL (≈ 2 µM)
Structure (SMILES): Cc1nc(-c2ccc(C(C)(C)C)cc2)nc(C)c1C(=O)N[C@@H](CCN)C(=O)N(C)[C@@H]1C(=O)N[C@@H](C)C(=O)N[C@H](C(=O)NCC#N)Cc2cc(OCCN)cc(c2)-c2cc1ccc2OCCN

MIC (Escherichia coli [5]): > 128 µM
MIC (Escherichia coli [6]): 104 µg/mL (≈ 126 µM)
MIC [7]: 1 µM (≈ 0.825 µg/mL)
MIC (Staphylococcus aureus [8]): > 128 µM
MIC [9]: 0.81 µg/mL (≈ 0.982 µM)
MIC (Staphylococcus aureus [10]): 104 µg/mL (≈ 126 µM)
Structure (SMILES): CC(C)CCCCCCCCC(=O)N(C)[C@H](CO)C(=O)N[C@H](C)C(=O)NCC(=O)N(C)[C@@H]1C(=O)N[C@@H](C)C(=O)N[C@H](C(=O)O)Cc2ccc(O)c(c2)-c2cc1ccc2O [ARYLOMYCIN A2]

IC50 [11]: 100 nM
Structure (SMILES): CCCCCCCCCC(=O)N[C@@H](CC(C)C)C(=O)N[C@H](C(=O)N1CCC[C@H]1C(=O)N(C)[C@H](C(=O)N[C@@H](C)C(=O)N[C@@H](CC(N)=O)C(=O)N[C@@H](C)C(=O)C(=O)NCCC(=O)N[C@@H](CC(=O)O)C(=O)O)[C@@H](C)O)[C@@H](C)O (Decanoyl-LTP[NMeT]AN[X1][βAla]D-OH)

MIC (Escherichia coli [5]): 16 µM (≈ 14.1 µg/mL)
MIC (Escherichia coli [6]): 13.9 µg/mL (≈ 15.7 µM)
MIC [7]: 0.5 µM (≈ 0.441 µg/mL)
MIC [9]: 0.43 µg/mL (≈ 0.488 µM)
Structure (SMILES): CCCCCCCCCCCCCCCC(=O)N(C)[C@H](CO)C(=O)N[C@H](C)C(=O)NCC(=O)N(C)[C@@H]1C(=O)N[C@@H](C)C(=O)N[C@H](C(=O)O)Cc2ccc(O)c(c2)-c2cc1ccc2O [ARYLOMYCIN C16]

MIC (Pseudomonas aeruginosa [3]): 2 µM (≈ 1.78 µg/mL)
MIC (Escherichia coli [12]): 0.125 µg/mL (≈ 0.14 µM)
MIC (Pseudomonas aeruginosa [4]): 1.78 µg/mL (≈ 2 µM)
MIC [9]: 0.25 µg/mL (≈ 0.281 µM)
MIC (Staphylococcus aureus [10]): 0.06 µg/mL (≈ 0.0674 µM)
Structure (SMILES): Cc1nc(-c2ccc(C(C)(C)C)cc2)ncc1C(=O)N[C@@H](CCN)C(=O)N(C)[C@@H]1C(=O)N[C@@H](C)C(=O)N[C@H](C(=O)NCC#N)Cc2cc(OCCN)cc(c2)-c2cc1ccc2OCCN

IC50 [13]: 110 nM
IC50 [14]: 2400 nM
Structure (SMILES): CCCC(C)/C=C(/C)C(=O)OC(CCCCCCC/C=C/C(=O)NCCC(=O)N[C@@H](CS(=O)(=O)O)C(=O)N(C)[C@@H]1C(=O)N[C@@H](C)C(=O)N[C@H](C(=O)O)Cc2ccc(O)c(c2)-c2cc1cc(O)c2O[C@@H]1O[C@@H](C)[C@H](OS(=O)(=O)O)[C@@H](OS(=O)(=O)O)[C@H]1O)CCC(C)C (stereo partly drawn)

Structure (SMILES): CNC(=O)c1cc(Oc2ccc(NC(=O)Nc3ccc(Cl)c(C(F)(F)F)c3)cc2)ccn1 [SORAFENIB]
MIC (Staphylococcus aureus [1]): 1.39 µg/mL (≈ 2.99 µM)
MIC (Staphylococcus aureus [2]): 3 µM (≈ 1.39 µg/mL)

MIC (Staphylococcus aureus [15]): 16 µg/mL (≈ 17.4 µM)
MIC [16]: 16 µg/mL (≈ 17.4 µM)
Structure (SMILES): C[C@@H]1NC(=O)[C@@H](N(C)C(=O)CNC(=O)[C@@H](C)NC(=O)[C@@H](CO)NC(=O)CCCCCCCCc2ccc(-c3ccccc3)cc2)c2ccc(O)c(c2)-c2cc(ccc2O)C[C@@H](C(=O)O)NC1=O

IC50 [17]: 70 nM
Structure (SMILES): C=CCOC(=O)C1=CS[C@H]2[C@@H]([C@@H](C)OC(C)=O)C(=O)N12

IC50 [17]: 180 nM
Structure (SMILES): C=CCOC(=O)C1=CS[C@H]2[C@@H]([C@@H](C)O)C(=O)N12
